Results from ChEMBL document CHEMBL1140607, “Pharmacophore mapping of diverse classes of farnesyltransferase inhibitors” (Bioorg Med Chem Lett, 2007).

Assay: Inhibition of FTase

Cc1ccccc1-c1cc(C(OCc2cccc(C(F)(F)F)c2)c2cncn2C)ccc1C#N (configuration not stated)
IC50: 29 nM

Cn1cncc1C(OCc1ccc(C#N)cc1-c1ccc2c(c1)OC(F)(F)O2)c1ccc(C#N)cc1 (configuration not stated)
IC50: 1.1 nM

COc1cccc(-c2cc(N)ccc2COC(c2ccc(C#N)cc2)c2cncn2C)c1 (configuration not stated)
IC50: 40 nM

COCc1cccc(-c2cc(C#N)ccc2COC(c2ccc(C#N)cc2)c2cncn2C)c1 (configuration not stated)
IC50: 0.19 nM

C[n+]1cccc(NC(=O)C2CN(C3c4ccc(Cl)cc4CCc4cc(Br)cnc43)CCN2C(=O)NC2CC2)c1 (configuration not stated)
IC50: 51 nM

CS(=O)(=O)Cn1cncc1COCc1ccc(C#N)cc1-c1cccc(Cl)c1
IC50: 96 nM

N#Cc1ccc(Cn2cncc2COCc2ccc(C#N)cc2-c2cccc(OC(F)(F)F)c2)cc1
IC50: 0.49 nM

O=C(Nc1nncs1)C1CN(C2c3ccc(Cl)cc3CCc3cc(Br)cnc32)CCN1C(=O)NC1CCCCC1 (configuration not stated)
IC50: 490 nM

Cn1c(=O)cc(-c2cccc(Cl)c2)c2cc(Cn3cncc3Cn3ccc(C(=O)N4CCOCC4)c3)ccc21
IC50: 1000 nM

N#Cc1ccc(COCc2cncn2Cc2ccc(C#N)cc2-c2cccc3ccccc23)cc1
IC50: 0.96 nM

CCOc1cccc(-c2cc(C#N)ccc2COCc2cncn2Cc2ccc(C#N)cc2)c1
IC50: 0.27 nM

Cn1cncc1C(OCc1ccc(C#N)cc1NS(=O)(=O)c1cccs1)c1ccc(C#N)cc1 (configuration not stated)
IC50: 0.88 nM

Cn1cncc1C(O)(c1ccc(Cl)cc1)c1ccc2c(c1)n(Cc1cccc(Cl)c1)c(=O)n2C (configuration not stated)
IC50: 150 nM

Cc1ccc(CNC(=O)C2CN(C3c4ccc(Cl)cc4CCc4cc(Br)cnc43)CCN2C(=O)NC2CCCCC2)cn1 (configuration not stated)
IC50: 61 nM

Cn1cncc1C(OCc1ccc(C#N)cc1)c1ccc(C#N)c(-c2cc3ccccc3s2)c1 (configuration not stated)
IC50: 160 nM

CCOc1cccc(-c2cc(C#N)ccc2C#CC(O)(c2ccc(C#N)cc2)c2cncn2C)c1 (configuration not stated)
IC50: 0.73 nM

CCCCC(=O)N1CCN(C2c3ccc(Cl)cc3CCc3cc(Br)ccc32)CC1C(=O)NCc1ccc[n+]([O-])c1 (configuration not stated)
IC50: 1800 nM

CCOc1cccc(-n2c(=O)n(C)c3ccc(C(O)(c4ccc(C#N)cc4)c4cncn4C)cc32)c1 (configuration not stated)
IC50: 0.5 nM

Cn1cncc1C(O)(c1ccc(C#N)cc1)c1ccc2c(c1)n(-c1cccc(Cl)c1)c(=O)n2C (configuration not stated)
IC50: 1.4 nM

CCOc1cccc(-c2cc(C#N)ccc2CNCc2cncn2Cc2ccc(C#N)cc2)c1
IC50: 0.014 nM

N#Cc1ccc(Cn2cncc2Cn2ccc3cc(-c4cccc5ccccc45)c(C#N)cc32)cc1
IC50: 0.15 nM

N#Cc1ccc(OCc2cn(Cc3ccc(C#N)c(-c4ccc5ccccc5c4)c3)cn2)cc1
IC50: 0.32 nM
